In patent publication US8518958B2, “Pyrido [2,3-D] pyrimidines and their use as kinase inhibitors” (Forma Therapeutics, Inc., priority 2006, dated 2013):

Tests used:
B-Raf delta1-415 = B-Raf delta1-415 (Homo sapiens, UniProt P15056); test: B-Raf kinase inhibition (MAPH filter plate, 33P-ATP, MEK1 substrate); conditions: read-out: Biochemical IC50 B-Raf
Source text: We characterized the in vitro inhibitory activity against protein kinases of compounds of the present invention by determining their IC50 values (see Table 2).
Kinase: B-Raf delta1-415 (e.g., Upstate Cat. No. 14-530)
Reaction Temperature: room temperature
Assay Plate: 96 well U bottom plate (Greiner, 650161)
MultiScreen-PH Plate: 96 well MAPH Filter Plates (Millipore, MAPHNOB50)
Filter Washing Solution: 0.75% H3PO4
Szintilation Liquid: Supermix Liquid Szintillator (PerkinElmer, 1200-439)
Negative Control (C−): 100 mM EDTA, no Inhibitor
Positive Control (C+): no Inhibitor
Reaction Buffer: 20 mM Mops, pH 7.0 • 10 mM MgCl2 • 0.4 mM MnCl2 • 100 mM NaCl • 1 mM DTT • 0.01% NP40
Final Assay Concentrations:
Kinase: Kinase conc. yielding 50% substrate turnover as determined in titration experiment.
Adenosine 5′-[γ-^33P]triphosphate: 12.5 μCi/ml (Amersham Biosciences, BF1000)
Pipetting Sequence: • 1) Add 10 μl 4-fold concentrated substrate in 3-fold concentrated reaction buffer to each well of assay plate • 2) Add 10 μl 4-fold concentrated inhibitor in 4% DMSO in H2O to each well except to C− and C+ wells (starting point: final inhibitor concentration 10 μM; IC50 determination based on dilution series) • 3) Add 10 μl 4% DMSO in H2O to C− and C+ wells • 4) Add 10 μl 500 mM EDTA in H2O to C− wells • 5) Add 10 μl 50 μCi/ml adenosine 5′-[γ-^33P]triphosphate in H2O+4-fold cold ATP to each well • 6) Add 10 μl 4-fold concentrated kinase in reaction buffer to each well • 7) Incubate 1 hr at room temperature • 8) Add 10 μl 50 mM EDTA in H2O to each well except to C− wells • 9) Prepare MAPH plates by adding 200 μl 0.75% H3PO4 to each well • 10) Exhaust 0.75% H3PO4 using Millipore vacuum station • 11) Add 60 μl 0.75% H3PO4 to each well of MAPH filter plate • 12) Transfer 30 μl sample per well from assay plate to corresponding well of MAPH filter plate • 13) Incubate 30 min at room temperature • 14) Wash each well of MAPH filter plates 3× with 200 μl 0.75% H3PO4 using Millipore vacuum station • 15) Add 20 μl scintillation liquid to each well of MAPH filter plate • 16) Seal MAPH filter plate • 17) Store MAPH filter plate 30 min in darkness • 18) Quantify radioactivity using scintillation counter (MicroBeta, Perkin-Elmer)

HT-29 tumor cells = test: Anti-proliferative activity, SRB assay; type: cell-based, human; conditions: Homo sapiens, HT-29, 72 h, 72 hours exposure, read-out: CELLULAR IC50 HT-29
Method: We observed the surprising finding that compounds of the invention were useful in inhibiting proliferation of HT-29 tumor cells (see Table 3).
3,000-15,000 cells/well were exposed to the test compounds at various concentrations appropriate to determine an IC50, for 72 hours, and cell proliferation was measured using the SRB assay according to Shekan et al (J Natl Cancer Inst (1990) 82, 1107-112) in order to estimate the IC50 values shown in Table 3. Briefly, cells were plated in 96 well dishes 24 hours prior to compound addition. The assay was terminated with the addition of cold TCA to a final concentration of 10% and the plates were incubated for one hour at 4° C. The plates were then washed 5 times with water and 100 μl of a Sulforhodamine B solution (4%) was added to each well. The plate was then incubated for 10 minutes at room temperature before removal of unbound dye by washing with 1% acetic acid. The bound dye was solubilized with 10 mM Trizma base and the absorbance read at OD570. Inhibitory activity of the compounds was calculated as % inhibition of cell proliferation compared to cells treated with the solvent (DMSO).

B-Raf delta1-415, sequence (P15056 416-766): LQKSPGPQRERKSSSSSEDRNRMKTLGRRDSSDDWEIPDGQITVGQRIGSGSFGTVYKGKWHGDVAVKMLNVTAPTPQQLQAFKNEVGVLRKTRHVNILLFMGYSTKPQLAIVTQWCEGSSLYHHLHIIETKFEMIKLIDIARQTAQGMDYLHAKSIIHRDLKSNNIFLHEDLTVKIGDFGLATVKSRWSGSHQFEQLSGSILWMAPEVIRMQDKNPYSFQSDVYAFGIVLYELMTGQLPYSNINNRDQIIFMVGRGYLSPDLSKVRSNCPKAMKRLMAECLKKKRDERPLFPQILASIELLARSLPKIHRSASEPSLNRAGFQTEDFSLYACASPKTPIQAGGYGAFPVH

IC50 (B-Raf delta1-415) [nM] | IC50 (HT-29 tumor cells) [nM] | SMILES
< 500 | < 1000 | COCCN1CCN(C(=O)c2cc(Nc3ncc4cc(-c5c(Cl)cccc5Cl)c(=O)n(OC)c4n3)cn2C)CC1 [Compound 188, 6-(2,6-Dichlorophenyl)-8-methoxy-2-(5-(4-(2-methoxy)ethyl)piperazino-carbonyl-1-methyl-pyrrol-3-yl)-amino-pyrido[2,3-d]pyrimidin-7-one]
< 500 | < 1000 | COCCOn1c(=O)c(-c2cc(NC(=O)c3ccccc3)ccc2Cl)cc2cnc(Nc3ccc(N4CCN(C)CC4)cc3)nc21 [Compound 106, 6-(5-Benzoylamino-2-chloro-phenyl)-8-(2-methoxyethyl)oxy-2-(4-(4-methylpiperazino)-phenylamino)-pyrido[2,3-d]pyrimidin-7-one]
< 500 | < 1000 | COn1c(=O)c(-c2c(Cl)cccc2Cl)cc2cnc(Nc3cc(C(=O)N(C)CCOC(=O)c4ccccc4)n(C)c3)nc21 [Compound 141]
< 100 | < 1000 | COn1c(=O)c(-c2c(F)cccc2Cl)cc2cnc(Nc3ccc(N4CCN(S(C)(=O)=O)CC4)cc3)nc21 [Compound 223, 6-(2-Chloro-6-fluorophenyl)-8-methoxy-2-(4-(4-methylsulfonylpiperazino)phenyl)-amino-pyrido[2,3-d]pyrimidin-7-one]
< 500 | < 1000 | COCCN(C)C(=O)c1cc(Nc2ncc3cc(-c4c(Cl)cccc4Cl)c(=O)n(OCC4CCOCC4)c3n2)cn1C [Compound 177, 6-(2,6-dichlorophenyl)-2-(5-N-(2-methoxyethyl)-N-methyl-aminocarbonyl-1-methyl-pyrrol-3-yl)-amino-8-(tetrahydropyran-4-ylmethyl)oxy-pyrido[2,3-d]pyrimidin-7-one]
– | < 1000 | COc1cc(Nc2ncc3cc(-c4c(Cl)cccc4Cl)c(=O)n(OC)c3n2)ccc1N1CCNCC1 [Compound 227, 6-(2,6-Dichlorophenyl)-8-methoxy-2-(3-methoxy-4-piperazino-phenyl)-amino-pyrido[2,3-d]pyrimidin-7-one]
< 500 | < 10000 | COn1c(=O)c(-c2c(Cl)cccc2Cl)cc2cnc(NCCOC(=O)[C@@H](N)C(C)C)nc21 [Compound 109, 2-((2-(S)-2-Amino-3-methylbutanoyloxy)ethyl)-amino-6-(2,6-dichlorophenyl)-8-methoxy-pyrido[2,3-d]pyrimidin-7-one]
< 100 | < 1000 | CCOn1c(=O)c(-c2c(F)cccc2Cl)cc2cnc(Nc3ccc(N4CCOCC4)cc3)nc21 [Compound 128]
< 500 | < 1000 | O=c1c(-c2c(Cl)cccc2Cl)cc2cnc(Nc3ccccc3)nc2n1OCC1CCOCC1 [Compound 186, 6-(2,6-Dichlorophenyl)-2-phenylamino-8-(tetrahydropyran-4-ylmethyl)oxy-pyrido[2,3-d]pyrimidin-7-one]
< 500 | < 1000 | COn1c(=O)c(-c2c(Cl)cccc2Cl)cc2cnc(Nc3ccc(/C=N/O)cc3)nc21 [Compound 210, 2-(4-(hydroximino)methylphenyl)-amino-6-(2,6-dichlorophenyl)-8-methoxy-pyrido[2,3-d]pyrimidin-7-one]
< 100 | < 1000 | O=c1c(-c2c(F)cccc2Cl)cc2cnc(Nc3ccc(N4CCOCC4)cc3)nc2n1OC[C@@H](O)CO [Compound 148]
< 500 | < 1000 | COCCOn1c(=O)c(-c2c(Cl)cccc2Cl)cc2cnc(Nc3ccc(N4CCNCC4)cc3)nc21 [Compound 195, 6-(2,6-Dichlorophenyl)-8-(2-methoxyethyl)oxy-2-(4-piperazinophenyl)-amino-pyrido[2,3-d]pyrimidin-7-one]
– | < 1000 | CN1CCN(c2ccc(Nc3ncc4ccc(=O)n(OC5CCCCC5)c4n3)cc2)CC1 [Compound 236]
< 100 | < 1000 | COn1c(=O)c(-c2c(F)cccc2Cl)cc2cnc(Nc3ccc(N4CCNCC4)c(CO)c3)nc21 [Compound 218, 6-(2-Chloro-6-fluorophenyl)-8-methoxy-2-(3-hydroxymethyl-4-piperazinophenyl)-amino-pyrido[2,3-d]pyrimidin-7-one]
> 1000 | < 10000 | COn1c(=O)c(-c2c(Cl)cccc2Cl)cc2cnc(Nc3ccc(C)cc3)nc21 [Compound 150, 6-(2,6-Dichlorophenyl)-2-(4-methylphenyl)-amino-8-methoxy-pyrido[2,3-d]pyrimidin-7-one]
< 100 | < 1000 | COn1c(=O)c(-c2c(F)cccc2Cl)cc2cnc(Nc3ccc(N4CCN(C(C)C)CC4)cc3)nc21 [Compound 203, 6-(2-Chloro-6-fluorophenyl)-8-methoxy-2-(4-(4-(1-methylethyl)piperazino)phenyl)-amino-pyrido[2,3-d]pyrimidin-7-one]
< 100 | < 1000 | O=c1c(-c2c(F)cccc2Cl)cc2cnc(Nc3ccc(N4CCOCC4)cc3)nc2n1OC[C@H](O)CO [Compound 152]
< 100 | < 1000 | O=c1c(-c2c(F)cccc2Cl)cc2cnc(Nc3ccc(N4CCNCC4)cc3)nc2n1OCC1CCOCC1 [Compound 215]
< 500 | < 1000 | COn1c(=O)c(-c2c(Cl)cccc2Cl)cc2cnc(Nc3cccc(CS(=O)(=O)NCCO)c3)nc21 [Compound 156, 6-(2,6-Dichlorophenyl)-2-(3-((2-hydroxyethylamino)sulfonylmethyl)phenyl)-amino-8-methoxy-pyrido[2,3-d]pyrimidin-7-one]
< 500 | < 1000 | CC(C)N1CCN(c2ccc(Nc3ncc4cc(-c5c(Cl)cccc5Cl)c(=O)n(OCC5CCOCC5)c4n3)cc2)CC1 [Compound 206, 6-(2,6-Dichlorophenyl)-8-(tetrahydropyran-4-ylmethyl)oxy-2-(4-(4-(1-methylethyl)piperazino)phenyl)-amino-pyrido[2,3-d]pyrimidin-7-one]
< 500 | < 1000 | COn1c(=O)c(-c2c(Cl)cccc2Cl)cc2cnc(Nc3cccc(CN4CC[C@@H](O)C4)c3)nc21 [Compound 182, 6-(2,6-Dichlorophenyl)-2-(3-(3-(R)-hydroxypyrrolidinomethyl)phenyl)-amino-8-methoxy-pyrido[2,3-d]pyrimidin-7-one]
< 100 | < 1000 | COn1c(=O)c(-c2c(F)cccc2Cl)cc2cnc(Nc3ccc(N4CCNCC4)c(F)c3)nc21 [Compound 211, 6-(2-Chloro-6-fluorophenyl)-2-(3-fluoro-4-piperazinophenyl)-amino-8-methoxy-pyrido[2,3-d]pyrimidin-7-one]
– | < 1000 | Cn1cc(Nc2ncc3cc(-c4c(F)cccc4Cl)c(=O)n(OCC4CCOCC4)c3n2)cc1C(=O)N1CCNCC1 [Compound 224, 6-(2-Chloro-6-fluorophenyl)-2-(5-(piperazinocarbonyl)-1-methyl-pyrrol-3-yl)-amino-8-(tetrahydropyran-4-ylmethyl)oxy-pyrido[2,3-d]pyrimidin-7-one]
> 1000 | – | CN1CCN(c2ccc(Nc3ncc4ccc(=O)n(OC(C)(C)C)c4n3)cc2)CC1 [Compound 233]
< 100 | – | NCCCCOn1c(=O)c(-c2c(Cl)cccc2Cl)cc2cnc(Nc3ccccc3)nc21 [Compound 66, 8-(4-Aminobutyl)oxy-6-(2,6-dichlorophenyl)-2-phenylamino-pyrido[2,3-d]pyrimidin-7-one]
